In patent US20140024030A1, “PRESELECTION OF SUBJECTS FOR THERAPEUTIC TREATMENT WITH OXYGEN SENSITIVE AGENTS BASED IN HYPOXIC STATUS” (priority 2010, published 2014):

Assays:
[1] = system: locally advanced, unresectable or metastatic pancreatic cancer; settings: 100 mg cohort, arms: gemcitabine plus erlotinib vs gemcitabine alone, cited from earlier work
[2] = system: HCT116 human colon carcinoma xenograft; assay: HCT116 xenograft model in nude mice (hypoxic tumor); format: in vivo; settings: for efficacy at slowing tumor growth in HCT116 (high hypoxia) versus 786O (low hypoxia) tumors: comparison of HCT116 and 786O xenografts in nude mice
Method: Human tumor cell lines HCT116 (ATCC #CRL-247; Schroy P C, et al. Cancer 76: 201-209, 1995) and 786-O (ATCC #CRL-1932; Williams R D, et al. In Vitro 12: 623-627, 1976), were obtained from the American Type Culture Collection (Manassus, Va., USA) were cultured using routine methods until a sufficient number of cells were obtained for implantation. Studies were conducted on animals between 7 and 12 weeks of age at implantation. To implant HCT116 tumor cells into nude mice, the cells were trypsinized, washed in PBS and resuspended at a concentration of 75×10^6 cells/ml in McCoy's modified medium with 50% of BD Matrigel® Basement Membrane Matrix (BD Biosciences®, Bedford, Mass., USA). To implant 786-O tumor cells into nude mice, the cells were trypsinized as above, washed in PBS and resuspended at a concentration of 75×10^6 cells/ml in RPMI 1640 medium with 50% of BD Matrigel® Basement Membrane Matrix. Using a 27 gauge needle and 1 cc syringe, 0.1 ml of the cell suspension was injected into the corpus adiposum of nude mice. […] The location permits palpation and measurement of the tumors using external calipers. Tumor volumes (V) were calculated by caliper measurement of the width (W), length (L) and thickness (T) of tumors using the following formula: V=0.5236×(L×W×T).
As above, HCT116 and 786-O cells were cultured and implanted into nude mice using the methods in the previous example. Tumor growth was measured using calipers.
Tumor volume was monitored throughout the course of the study, until up to about 40 days from the date of tumor implantation. The exact number of days of the study depended on a number of factors including, for example, the number of days from implantation for the tumors to reach the desired volume.

hepatocellular carcinoma = settings: cited from earlier work
[3] = system: advanced renal cell carcinoma; settings: cited from earlier work
[4] = system: metastatic malignancies including renal cell carcinoma; settings: cited from earlier work
[5] = system: renal cell carcinoma cell lines; settings: in vitro; cited from earlier work
[6] = system: advanced renal cell carcinoma (RCC); settings: cited from earlier work; for progression-free survival: P=0.0001
[7] = system: renal cell carcinoma (RCC); settings: 140 subjects with elevated LDH; temsirolimus vs interferon; log-rank p<0.005; cited from earlier work
renal cancer = settings: arms: bevacizumab and interferon-alpha vs interferon-alpha alone; cited from earlier work
treatment-naïve RCC = settings: final analysis; arms: sunitinib vs IFN-α; cited from earlier work
[8] = arms: temsirolimus alone vs interferon-alpha

Nc1ccn([C@@H]2O[C@H](CO)[C@@H](O)C2(F)F)c(=O)n1 [gemcitabine]
progression free survival ([1]; p=0.006): 3.5 months
survival ([1]; p=0.028): 6.0 months

CNC(=O)c1cc(Oc2ccc(NC(=O)Nc3ccc(Cl)c(C(F)(F)F)c3)cc2)ccn1 [sorafenib]
efficacy at slowing tumor growth in HCT116 (high hypoxia) versus 786O (low hypoxia) tumors [2]: not found to work better in the tumors with a higher level of hypoxia
disease control rate (DCR) (hepatocellular carcinoma; disease stabilization for at least 28 days): 43.48%
time to progression HR (hepatocellular carcinoma; independent radiological review, sorafenib vs placebo, p=0.000007): 0.58
overall survival HR (hepatocellular carcinoma; sorafenib 400 mg twice daily vs placebo, p=0.00058): 0.69
median progression free survival ([3]; 769 patients, sorafenib 400 mg twice daily (N=384)): 167 days
estimated improvement in overall survival vs placebo ([3]; as of 30 Nov. 2005, 367 deaths): 30%
median PFS ([3]; patients with no prior IL-2 or interferon therapy (N=137)): 172 days
median overall survival ([3]; sorafenib 400 mg twice daily, 367 deaths): 19.3 months
progression free survival HR ([3]; sorafenib vs placebo, p<0.000001): 0.44
progression free rate ([4]; at 24 weeks, p=0.0077): 50%
progression free survival HR ([4]; sorafenib vs placebo): 0.29

CO[C@H]1C[C@@H]2CC[C@@H](C)[C@@](O)(O2)C(=O)C(=O)N2CCCC[C@H]2C(=O)O[C@H]([C@H](C)C[C@@H]2CC[C@@H](OC(=O)C(C)(CO)CO)[C@H](OC)C2)CC(=O)[C@H](C)/C=C(\C)[C@@H](O)[C@@H](OC)C(=O)[C@H](C)C[C@H](C)/C=C/C=C/C=C/1C [temsirolimus]
efficacy at slowing tumor growth in HCT116 (high hypoxia) versus 786O (low hypoxia) tumors [2]: not found to work better in the tumors with a higher level of hypoxia
activity of mTOR [5]: inhibited the activity of mTOR
levels of HIF-1, HIF-2 alpha and VEGF [5]: reduced levels of the hypoxia-inducible factors HIF-1 and HIF-2 alpha, and the vascular endothelial growth factor
progression-free survival [6, 8]: 5.5 months
overall survival versus interferon-alpha alone ([6]; combination of temsirolimus and interferon-alpha): did not result in a significant increase in overall survival
increase in median overall survival ([6]; temsirolimus compared to interferon-alpha): 49%
survival [7]: 6.9 months

COc1cc(Nc2nc3ccccc3nc2NS(=O)(=O)c2ccc(NC(=O)c3ccc(C)c(OC)c3)cc2)cc(OC)c1 [XL765]
tumor growth rate versus control ([2]; XL765 30 mg/kg 5x/week P.O., p=0.009): reduced the growth rate of the tumor as compared to control
efficacy at slowing tumor growth in HCT116 (high hypoxia) versus 786O (low hypoxia) tumors [2]: more effective at slowing tumor growth in tumors with high levels of hypoxia

interferon-alpha
patients with decreased tumor size (renal cancer): 12%
progression-free survival [6, 8]: 3.1 months
median overall survival ([6]; arms: temsirolimus alone vs interferon-alpha, P=0.0078): 7.3 months
median OS (treatment-naïve RCC): 94.9 weeks
survival [7]: 4.2 months
